Test results reported in patent US12568971B2, “Degradative method” (Catexel Technologies Limited, priority 2020, dated 2026).

What was measured:
[1] = Dynamic viscosity of alginate solution after treatment (alginate depolymerisation), Brookfield cone/plate viscometer
[2] = as above; remark: listed apart in the source
Method: The bottle was placed in a warm water bath (50° C.) for 60 minutes before being removed and cooled in an ice bath. Finally, the dynamic viscosity was determined using a Brookfield viscosity meter as outlined below. Note 1: A 2 mM solution of [[…])2 (see description of stock 12 above) was mixed with equivalent volume of the 2 mM ascorbic acid stock solution (stock solution 7). Upon contact with the ascorbic acid, the catalyst turned from orange/red to red/purple. Note 2: 0.5 mL of both Me3-TACN ligand (stock solution 10) and MnSO4·H2O (stock solution 8) were mixed, stirred and used as a source of catalyst to be placed in the alginate solution. The dynamic viscosity of the samples was measured using a Brookfield HBDV-II cone/plate viscosity meter equipped with a spindle CPE-40. The viscometer was linked to a water bath to maintain the temperature at 25° C. The apparatus was controlled via computer (external mode) using the Rheocalc software. Initially, the viscometer was zeroed without spindle. Then, the spindle CPE-40 was installed and the gap between the bottom of the cone and the top of the cup was set according to the recommendations given by Brookfield. 0.5 mL of the treated alginate solution was placed in the cup of the viscometer using a disposable plastic syringe before the apparatus was closed and the test program launched. […] Results.

For CC(=O)[O-].CC(=O)[O-].CN1CCN(C)CCN(C)CC1.CN1CCN(C)CCN(C)CC1.[Mn+4].[Mn+4].[O-2].[O-2].[O-2] [[Mn2(μ-O)3(Me3-TACN)2]^2+, [Mn^IVMn^IV(μ-O)3(1,4,7-trimethyl-1,4,7-triazacyclononane)2][CH3COO]2], the “Dynamic Viscosity” value ([1]; 5 μM, pH 9.0, 20 mM H2O2, 4.7 mM NaHCO3, 1 h at 40° C.) was 17.9 mPa · s, the “Dynamic Viscosity” value ([1]; 10 μM, 3 mM PAA, 0.185M Tris buffer, pH 8.5, 60 min at 30° C.) was 94.8 mPa · s and the “Dynamic Viscosity” value ([1]; 10 μM, pH 10.5, 20 mM H2O2, 4.7 mM NaHCO3, 1 h at 40° C.) was 65.5 mPa · s. For the same compound, the “Dynamic Viscosity” value ([2]; 2.5 μM, pH 8.0, 20 mM H2O2, 4.7 mM NaHCO3, 1 h at 50° C.) was 85.0 mPa.s, the “Dynamic Viscosity” value ([2]; 2.5 μM, pH 8.5, 20 mM H2O2, 4.7 mM NaHCO3, 1 h at 50° C.) was 72.2 mPa.s and the “Dynamic Viscosity” value ([2]; 2.5 μM, pH 9.0, 20 mM H2O2, 4.7 mM NaHCO3, 1 h at 50° C.) was 55.7 mPa.s. The “Dynamic Viscosity” value ([2]; 2.5 μM, pH 9.0, 20 mM H2O2, 1 h at 50° C.) was 99.7 mPa · s, the “Dynamic Viscosity” value ([2]; 2.5 μM, pH 9.5, 20 mM H2O2, 4.7 mM NaHCO3, 1 h at 50° C.) was 59.5 mPa.s and the “Dynamic Viscosity” value ([2]; 2.5 μM, pH 9.5, 20 mM H2O2, 1 h at 50° C.) was 76.8 mPa · s. For the same compound, the “Dynamic Viscosity” value ([2]; 2.5 μM, pH 10.0, 20 mM H2O2, 4.7 mM NaHCO3, 1 h at 50° C.) was 81.2 mPa.s, the “Dynamic Viscosity” value ([2]; 2.5 μM, pH 10.0, 20 mM H2O2, 1 h at 50° C.) was 60.6 mPa · s and the “Dynamic Viscosity” value ([2]; 2.5 μM, pH 10.5, 20 mM H2O2, 4.7 mM NaHCO3, 1 h at 50° C.) was 67.5 mPa.s. For the same compound, the “Dynamic Viscosity” value ([2]; 2.5 μM, pH 10.5, 20 mM H2O2, 1 h at 50° C.) was 56.6 mPa · s, the “Dynamic Viscosity” value ([2]; 2.5 μM, pH 11.0, 20 mM H2O2, 1 h at 50° C.) was 64.8 mPa · s and the “Dynamic Viscosity” value ([2]; 5 μM, 20 mM ^tBuOOH, 0.25 g/L sodium tetraborate decahydrate pH 9, 60 min at 50° C.) was 52.3 mPa · s. The “Dynamic Viscosity” value ([2]; 5 μM, pH 8.0, 20 mM H2O2, 4.7 mM NaHCO3, 1 h at 50° C.) was 50.9 mPa.s, the “Dynamic Viscosity” value ([2]; 5 μM, pH 8.5, 20 mM H2O2, 4.7 mM NaHCO3, 1 h at 50° C.) was 38.6 mPa.s and the “Dynamic Viscosity” value ([2]; 5 μM, pH 9, 10 mM H2O2, 4.7 mM NaHCO3, 60 min at 50° C.) was 21.6 mPa · s. For the same compound, the “Dynamic Viscosity” value ([2]; 5 μM, pH 9.0, 20 mM H2O2, 4.7 mM NaHCO3, 1 h at 50° C.) was 24.1 mPa.s, the “Dynamic Viscosity” value ([2]; 5 μM, pH 9.0, 20 mM H2O2, 1 h at 50° C.) was 78.1 mPa · s and the “Dynamic Viscosity” value ([2]; 5 μM, pH 9.5, 20 mM H2O2, 4.7 mM NaHCO3, 1 h at 50° C.) was 28.0 mPa.s. For the same compound, the “Dynamic Viscosity” value ([2]; 5 μM, pH 9.5, 20 mM H2O2, 1 h at 50° C.) was 41.3 mPa · s, the “Dynamic Viscosity” value ([2]; 5 μM, pH 10, 10 mM H2O2, 4.7 mM NaHCO3, 60 min at 50° C.) was 40.6 mPa · s and the “Dynamic Viscosity” value ([2]; 5 μM, pH 10.0, 20 mM H2O2, 4.7 mM NaHCO3, 1 h at 40° C.) was 54.2 mPa · s. The “Dynamic Viscosity” value ([2]; 5 μM, pH 10.0, 20 mM H2O2, 4.7 mM NaHCO3, 1 h at 50° C.) was 61.0 mPa.s, the “Dynamic Viscosity” value ([2]; 5 μM, pH 10.0, 20 mM H2O2, 1 h at 50° C.) was 27.2 mPa · s and the “Dynamic Viscosity” value ([2]; 5 μM, pH 10.5, 20 mM H2O2, 4.7 mM NaHCO3, 1 h at 50° C.) was 57.0 mPa.s. For the same compound, the “Dynamic Viscosity” value ([2]; 5 μM, pH 10.5, 20 mM H2O2, 1 h at 50° C.) was 25.6 mPa · s, the “Dynamic Viscosity” value ([2]; 5 μM, pH 11, 10 mM H2O2, 4.7 mM NaHCO3, 60 min at 50° C.) was 62.1 mPa · s and the “Dynamic Viscosity” value ([2]; 5 μM, pH 11.0, 20 mM H2O2, 1 h at 50° C.) was 40.4 mPa · s. The “Dynamic Viscosity” value ([2]; 10 μM +1 molar equivalent ascorbic acid, pH 9.0, 0 mM Dequest 2047, 20 mM H2O2, 4.7 mM NaHCO3, 60 minutes at room temperature) was 7.9 mPa · s, the “Dynamic Viscosity” value ([2]; 10 μM +1 molar equivalent ascorbic acid, pH 9.0, 20 mM H2O2, 4.7 mM NaHCO3, 60 minutes at 40° C.) was 7.4 mPa.s and the “Dynamic Viscosity” value ([2]; 10 μM, no ascorbic acid, pH 9.5, 0 mM Dequest 2047, 20 mM H2O2, 4.7 mM NaHCO3, 60 minutes at room temperature) was 19.3 mPa · s. The “Dynamic Viscosity” value ([2]; 10 μM, no ascorbic acid, pH 10.5, 1.0 mM Dequest 2047, 20 mM H2O2, 4.7 mM NaHCO3, 60 minutes at room temperature) was 42.6 mPa · s, the “Dynamic Viscosity” value ([2]; 10 μM, 1.5 mM PAA + 1.5 mM H2O2, 0.185M Tris buffer, pH 8.5, 60 min at 30° C.) was 85.3 mPa · s and the “Dynamic Viscosity” value ([2]; 10 μM, 3 mM H2O2, 0.185M Tris buffer, pH 8.5, 60 min at 30° C.) was 49.4 mPa · s. The “Dynamic Viscosity” value ([2]; 10 μM, pH 8.0, 20 mM H2O2, 4.7 mM NaHCO3, 1 h at 40° C.) was 24.2 mPa · s, the “Dynamic Viscosity” value ([2]; 10 μM, pH 8.0, 20 mM H2O2, 4.7 mM NaHCO3, 1 h at 50° C.) was 26.3 mPa.s and the “Dynamic Viscosity” value ([2]; 10 μM, pH 8.5, 20 mM H2O2, 4.7 mM NaHCO3, 1 h at 50° C.) was 16.1 mPa.s. For the same compound, the “Dynamic Viscosity” value ([2]; 10 μM, pH 9.0, 20 mM H2O2, 4.7 mM NaHCO3, 1 h at 40° C.) was 9.1 mPa · s, the “Dynamic Viscosity” value ([2]; 10 μM, pH 9.0, 20 mM H2O2, 4.7 mM NaHCO3, 1 h at 50° C.) was 9.4 mPa.s and the “Dynamic Viscosity” value ([2]; 10 μM, pH 9.0, 20 mM H2O2, 1 h at 50° C.) was 47.9 mPa · s. For the same compound, the “Dynamic Viscosity” value ([2]; 10 μM, pH 9.5, 20 mM H2O2, 4.7 mM NaHCO3, 1 h at 40° C.) was 10.5 mPa · s, the “Dynamic Viscosity” value ([2]; 10 μM, pH 9.5, 20 mM H2O2, 4.7 mM NaHCO3, 1 h at 50° C.) was 12.8 mPa.s and the “Dynamic Viscosity” value ([2]; 10 μM, pH 9.5, 20 mM H2O2, 1 h at 50° C.) was 16.2 mPa · s. For the same compound, the “Dynamic Viscosity” value ([2]; 10 μM, pH 10.0, 20 mM H2O2, 4.7 mM NaHCO3, 1 h at 50° C.) was 38.1 mPa.s, the “Dynamic Viscosity” value ([2]; 10 μM, pH 10.0, 20 mM H2O2, 1 h at 50° C.) was 11.9 mPa · s and the “Dynamic Viscosity” value ([2]; 10 μM, pH 10.5, 20 mM H2O2, 4.7 mM NaHCO3, 1 h at 50° C.) was 49.4 mPa.s. For the same compound, the “Dynamic Viscosity” value ([2]; 10 μM, pH 10.5, 20 mM H2O2, 1 h at 50° C.) was 11.1 mPa · s, the “Dynamic Viscosity” value ([2]; 10 μM, pH 11.0, 20 mM H2O2, 1 h at 50° C.) was 37.4 mPa · s and the “Dynamic Viscosity” value ([2]; Entry 4: 2.5 μM catalyst, 2.5 μM ascorbic acid, 2.5 μM Me3TACN ligand, 20 mM H2O2, 4.7 mM NaHCO3, pH 10, 60 min at 50° C.) was 72.5 mPa · s. The “Dynamic Viscosity” value ([2]; Entry 5: 2.5 μM catalyst, 2.5 μM ascorbic acid, 5 μM Me3TACN ligand, 20 mM H2O2, 4.7 mM NaHCO3, pH 10, 60 min at 50° C.) was 69.3 mPa · s, the “Dynamic Viscosity” value ([2]; Entry 6: 2.5 μM catalyst, 2.5 μM ascorbic acid, 10 μM Me3TACN ligand, 20 mM H2O2, 4.7 mM NaHCO3, pH 10, 60 min at 50° C.) was 61.7 mPa · s and the “Dynamic Viscosity” value ([2]; Entry 7: 2.5 μM catalyst, no ascorbic acid, no added ligand, 20 mM H2O2, 4.7 mM NaHCO3, pH 10, 60 min at 50° C.) was 78.1 mPa · s. For the same compound, the “Dynamic Viscosity” value ([2]; Entry 8: 2.5 μM catalyst, 2.5 μM Me3TACN ligand, 20 mM H2O2, 4.7 mM NaHCO3, pH 10, 60 min at 50° C.) was 73.3 mPa · s, the “Dynamic Viscosity” value ([2]; Entry 9: 2.5 μM catalyst, 5 μM Me3TACN ligand, 20 mM H2O2, 4.7 mM NaHCO3, pH 10, 60 min at 50° C.) was 66.6 mPa · s and the “Dynamic Viscosity” value ([2]; Entry 10: 2.5 μM catalyst, 10 μM Me3TACN ligand, 20 mM H2O2, 4.7 mM NaHCO3, pH 10, 60 min at 50° C.) was 56.8 mPa · s. The “Dynamic Viscosity” value ([2]; Entry 11: 5 μM catalyst, no added ligand, 20 mM H2O2, 4.7 mM NaHCO3, pH 10, 60 min at 50° C.) was 61.0 mPa · s, the “Dynamic Viscosity” value ([2]; Entry 12: 5 μM catalyst, 5 μM Me3TACN ligand, 20 mM H2O2, 4.7 mM NaHCO3, pH 10, 60 min at 50° C.) was 54.0 mPa · s and the “Dynamic Viscosity” value ([2]; Entry 13: 5 μM catalyst, 10 μM Me3TACN ligand, 20 mM H2O2, 4.7 mM NaHCO3, pH 10, 60 min at 50° C.) was 47.7 mPa · s. For the same compound, the “Dynamic Viscosity” value ([2]; Entry 14: 5 μM catalyst, 20 μM Me3TACN ligand, 20 mM H2O2, 4.7 mM NaHCO3, pH 10, 60 min at 50° C.) was 38.1 mPa · s.
